Measured values: US7329518B2, “Enzyme for producing optically active pyridineethanol derivatives” (Kaneka Corporation, priority 1999, dated 2008)

Tests used:
FPDH [1] = experiment: Behaviors of FPDH against inhibitors (reducing activity measurement with added compounds and metal salts); type: biochemical, Candida maris IFO 10003
FPDH [2] = experiment: Specificity of FPDH: reducing activity against various carbonyl compounds as substrates; type: biochemical, Candida maris IFO 10003; details: substrate 1 mM; 5-acetylfuro[2,3-c]pyridine = 100%; 0.25 mM NADH, pH 6.5, 30° C.
Experimental: In the practice of the invention, the reducing activity of the enzyme is determined by carrying out the reaction in 3.0 ml of a reactant mixture containing 1 mM substrate, 0.25 mM coenzyme NADH, 0.3% (vol/vol) dimethyl sulfoxide and an enzyme solution in 100 mM phosphate buffer (pH 6.5) at 30° C. for 3 minutes and then measuring the reduction in absorbance at 340 nm.
The term “very low in reducing activity” referring to the specificity means that when the reducing activity against 5-acetylfuro[2,3-c]pyridine is taken as 100%, the reducing activity against the substrate in question is not more than 10%. The term “carbocyclic ketones” means ketones, such as cyclohexanone and cyclopentanone, derived from alicyclic compounds by substituting —C(═O)— for a ring constituent —CH2— thereof.
Hereafter, the reducing activity was measured by allowing the reaction to proceed at 30° C. for 3 minutes in 3.0 ml of a reaction mixture containing 1 mM 5-acetylfuro[2,3-c]pyridine (substrate), 0.25 mM NADH, 0.3% (vol/vol) dimethyl sulfoxide and 0.05 ml of the enzyme solution in 100 mM phosphate buffer (pH 6.5) and measuring the decrease in absorbance at the wavelength 340 nm. These conditions were employed as standard reaction conditions for reducing activity measurement. The enzyme activity oxidizing 1 μmole of NADH to NAD^+ in one minute under these reaction conditions was defined as 1 unit.
The reducing activity of FPDH was examined against various compounds. Activity measurements were conducted under the standard reaction conditions for reducing activity measurement using various carbonyl compounds shown in Table 8 and Table 9 as substrates in lieu of 5-acetylfuro[2,3-c]pyridine. In Table 8 and Table 9, the results are shown in terms of relative activity with the reducing activity when 5-acetylfuro[2,3-c]pyridine was used as the substrate being taken as 100%. As a result, FPDH had reducing activity against ketones and aldehydes but the reducing activity thereof was very low against carbocyclic ketones and the ketone in position α to a carboxyl group.

[3] = inhibitor 1.0 mM, activity without inhibitor = 100%, 1 mM 5-acetylfuro[2,3-c]pyridine, 0.25 mM NADH, pH 6.5, 30° C.
[4] = inhibitor 0.01 mM, activity without inhibitor = 100%, 1 mM 5-acetylfuro[2,3-c]pyridine, 0.25 mM NADH, pH 6.5, 30° C.

O[C@H](CS)[C@H](O)CS (racemic) [Dithiothreitol]
Relative activity (FPDH [1]; [3]): 93%

c1cnc2c(c1)ccc1cccnc12 [1,10-Phenanthroline]
Relative activity (FPDH [1]; [3]): 98%

CC(=O)C1CCCCC1=O (centres unmarked) [1-Acetylcyclohexanone]
Relative activity (reducing activity, Table 8) (FPDH [2]): 68%

CC(=O)C1CCCC1=O (centres unmarked) [1-Acetylcyclopentanone]
Relative activity (reducing activity, Table 8) (FPDH [2]): 86%

CC(=O)c1cc2ccoc2c(Cl)n1 [1-Chloro-5-acetylfuro[2,3-c]pyridine]
Relative activity (reducing activity, Table 8) (FPDH [2]): 66%

O=C1CCCc2ccccc21 [1-Tetralone]
Relative activity (reducing activity, Table 9) (FPDH [2]): 2%

O=C(CCl)c1cccc(Cl)c1 [2,3′-Dichloroacetophenone]
Relative activity (reducing activity, Table 8) (FPDH [2]): 19%

CC(=O)c1ccco1 [2-Acetylfuran]
Relative activity (reducing activity, Table 8) (FPDH [2]): 43%

CC(=O)c1ccccn1 [2-Acetylpyridine]
Relative activity (reducing activity, Table 8) (FPDH [2]): 111%

CC(=O)c1ccc[nH]1 [2-Acetylpyrrole]
Relative activity (reducing activity, Table 8) (FPDH [2]): 100%

CC(=O)c1nccs1 [2-Acetylthiazole]
Relative activity (reducing activity, Table 8) (FPDH [2]): 86%

CC(=O)c1cccs1 [2-Acetylthiophene]
Relative activity (reducing activity, Table 8) (FPDH [2]): 77%

CCC(C)=O [2-Butanone]
Relative activity (reducing activity, Table 8) (FPDH [2]): 94%

CCCCC(C)=O [2-Hexanone]
Relative activity (reducing activity, Table 8) (FPDH [2]): 38%

O=C(CO)c1ccccc1 [2-Hydroxyacetophenone]
Relative activity (reducing activity, Table 8) (FPDH [2]): 54%

CCCC(=O)C(=O)O [2-Keto-n-valeric acid]
Relative activity (reducing activity, Table 9) (FPDH [2]): 7%

CCC(=O)C(=O)O [2-Ketobutyric acid]
Relative activity (reducing activity, Table 9) (FPDH [2]): 5%

OCCS [2-Mercaptoethanol]
Relative activity (FPDH [1]; [3]): 94%

CCCCCCC(C)=O [2-Octanone]
Relative activity (reducing activity, Table 8) (FPDH [2]): 38%

CCCC(C)=O [2-Pentanone]
Relative activity (reducing activity, Table 8) (FPDH [2]): 67%

O=C1CCc2ccccc2C1 [2-Tetralone]
Relative activity (reducing activity, Table 9) (FPDH [2]): 0%

CC(=O)c1cccnc1 [3-Acetylpyridine]
Relative activity (reducing activity, Table 8) (FPDH [2]): 107%

CC(=O)c1ccncc1 [4-Acetylpyridine]
Relative activity (reducing activity, Table 8) (FPDH [2]): 130%

CC(=O)c1cc2ccoc2cn1 [5-Acetylfuro[2,3-c]pyridine]
Relative activity (reducing activity, Table 8) (FPDH [2]): 100%

CC=O [Acetaldehyde]
Relative activity (reducing activity, Table 9) (FPDH [2]): 36%

CC(=O)C(C)O (centres unmarked) [Acetoin]
Relative activity (reducing activity, Table 8) (FPDH [2]): 43%

CC(C)=O [Acetone]
Relative activity (reducing activity, Table 8) (FPDH [2]): 40%

CC(=O)c1ccccc1 [Acetophenone]
Relative activity (reducing activity, Table 8) (FPDH [2]): 88%

CC(=O)CC(C)=O [Acetylacetone]
Relative activity (reducing activity, Table 8) (FPDH [2]): 123%

CC(=O)c1cnccn1 [Acetylpyrazine]
Relative activity (reducing activity, Table 8) (FPDH [2]): 133%

O=Cc1ccccc1 [Benzaldehyde]
Relative activity (reducing activity, Table 9) (FPDH [2]): 94%

CC(=O)CCc1ccccc1 [Benzylacetone]
Relative activity (reducing activity, Table 8) (FPDH [2]): 96%

CC12CCC(C(=O)C1=O)C2(C)C (centres unmarked) [Camphorquinone]
Relative activity (reducing activity, Table 9) (FPDH [2]): 3%

[Cl-].[Cl-].[Co+2] [CoCl2]
Relative activity (FPDH [1]; pH 6.5): 85%

O=S(=O)([O-])[O-].[Cu+2] [CuSO4]
Relative activity (FPDH [1]; [3]): 103%

O=C1CCCCCC1 [Cycloheptanone]
Relative activity (reducing activity, Table 9) (FPDH [2]): 4%

O=C1CCCCC1 [Cyclohexanone]
Relative activity (reducing activity, Table 9) (FPDH [2]): 4%

O=C1CCCC1 [Cyclopentanone]
Relative activity (reducing activity, Table 9) (FPDH [2]): 3%

O=C(O)c1cc(SSc2ccc([N+](=O)[O-])c(C(=O)O)c2)ccc1[N+](=O)[O-] [DTNB]
Relative activity (FPDH [1]; [4]): 98%

CC(=O)C(C)=O [Diacetyl]
Relative activity (reducing activity, Table 8) (FPDH [2]): 107%

CCC(=O)CC [Diethyl ketone]
Relative activity (reducing activity, Table 8) (FPDH [2]): 22%

O=C(O)CN(CCN(CC(=O)O)CC(=O)O)CC(=O)O [EDTA]
Relative activity (FPDH [1]; [3]): 98%

CCOC(=O)C(Cl)C(C)=O (centres unmarked) [Ethyl 2-chloroacetoacetate]
Relative activity (reducing activity, Table 9) (FPDH [2]): 88%

CCOC(=O)CC(C)=O [Ethyl acetoacetate]
Relative activity (reducing activity, Table 9) (FPDH [2]): 141%

CCOC(=O)C(C)=O [Ethyl pyruvate]
Relative activity (reducing activity, Table 8) (FPDH [2]): 133%

[Cl][Hg][Cl] [HgCl2]
Relative activity (FPDH [1]; [3]): 0%

O=C(O)CI [Iodoacetic acid]
Relative activity (FPDH [1]; pH 6.5): 80%

COC(=O)CC(C)=O [Methyl acetoacetate]
Relative activity (reducing activity, Table 9) (FPDH [2]): 128%

CC(=O)CC(C)C [Methyl isobutyl ketone]
Relative activity (reducing activity, Table 8) (FPDH [2]): 14%

CC(=O)C(C)C [Methyl isopropyl ketone]
Relative activity (reducing activity, Table 8) (FPDH [2]): 43%

COC(=O)C(C)=O [Methyl pyruvate]
Relative activity (reducing activity, Table 8) (FPDH [2]): 132%

O=S(=O)([O-])[O-].[Mg+2] [MgSO4]
Relative activity (FPDH [1]; [3]): 81%

[Cl][Mn][Cl] [MnCl2]
Relative activity (FPDH [1]; [3]): 76%

CCN1C(=O)C=CC1=O [N-ethylmaleimide]
Relative activity (FPDH [1]; [3]): 84%

O=C(O)CC(=O)C(=O)O [Oxalacetic acid]
Relative activity (reducing activity, Table 9) (FPDH [2]): 4%

CCC=O [Propionaldehyde]
Relative activity (reducing activity, Table 9) (FPDH [2]): 70%

O=Cc1ccccn1 [Pyridine-2-aldehyde]
Relative activity (reducing activity, Table 9) (FPDH [2]): 54%

O=Cc1cccnc1 [Pyridine-3-aldehyde]
Relative activity (reducing activity, Table 9) (FPDH [2]): 47%

O=Cc1ccncc1 [Pyridine-4-aldehyde]
Relative activity (reducing activity, Table 9) (FPDH [2]): 64%

CC(=O)C(=O)O [Pyruvic acid]
Relative activity (reducing activity, Table 9) (FPDH [2]): 3%

O=c1c(O)c(-c2ccc(O)c(O)c2)oc2cc(O)cc(O)c12 [Quercetin]
Relative activity (FPDH [1]; [4]): 78%

O=S(=O)([O-])[O-].[Zn+2] [ZnSO4]
Relative activity (FPDH [1]; [3]): 74%

CC(=O)c1cccc(Cl)c1 [m-Chloroacetophenone]
Relative activity (reducing activity, Table 8) (FPDH [2]): 120%

O=Cc1cccc(Cl)c1 [m-Chlorobenzaldehyde]
Relative activity (reducing activity, Table 9) (FPDH [2]): 111%

CC(=O)c1cccc([N+](=O)[O-])c1 [m-Nitroacetophenone]
Relative activity (reducing activity, Table 8) (FPDH [2]): 136%

O=Cc1cccc([N+](=O)[O-])c1 [m-Nitrobenzaldehyde]
Relative activity (reducing activity, Table 9) (FPDH [2]): 103%

[Hg+2] [mercury ion]
Inhibition of the enzyme activity (in words) (FPDH [1]; standard reaction conditions for reducing activity measurement): inhibited

CCCC=O [n-Butyr aldehyde]
Relative activity (reducing activity, Table 9) (FPDH [2]): 123%

CCCCCC=O [n-Hexyl aldehyde]
Relative activity (reducing activity, Table 9) (FPDH [2]): 71%

CC(=O)c1ccccc1Cl [o-Chloroacetophenone]
Relative activity (reducing activity, Table 8) (FPDH [2]): 9%

O=Cc1ccccc1Cl [o-Chlorobenzaldehyde]
Relative activity (reducing activity, Table 9) (FPDH [2]): 0%

O=Cc1ccccc1[N+](=O)[O-] [o-Nitrobenzaldehyde]
Relative activity (reducing activity, Table 9) (FPDH [2]): 9%

CC(=O)c1ccc(Cl)cc1 [p-Chloroacetophenone]
Relative activity (reducing activity, Table 8) (FPDH [2]): 88%

O=Cc1ccc(Cl)cc1 [p-Chlorobenzaldehyde]
Relative activity (reducing activity, Table 9) (FPDH [2]): 104%

CC(=O)c1ccc(F)cc1 [p-Fluoroacetophenone]
Relative activity (reducing activity, Table 8) (FPDH [2]): 88%

CC(=O)c1ccc([N+](=O)[O-])cc1 [p-Nitroacetophenone]
Relative activity (reducing activity, Table 8) (FPDH [2]): 116%

O=Cc1ccc([N+](=O)[O-])cc1 [p-Nitrobenzaldehyde]
Relative activity (reducing activity, Table 9) (FPDH [2]): 162%
